Laboratory results from ChEMBL document CHEMBL3867469, “Discovery of phenoxyindazoles and phenylthioindazoles as RORγ inverse agonists” (Bioorg Med Chem Lett, 2016).
pIC50: −log10 of the molar value.

Legend:
[1] = molecular target: T1, Retinoic acid receptor gamma (Homo sapiens, UniProt P13631)
T1 sequence (P13631 whole entry): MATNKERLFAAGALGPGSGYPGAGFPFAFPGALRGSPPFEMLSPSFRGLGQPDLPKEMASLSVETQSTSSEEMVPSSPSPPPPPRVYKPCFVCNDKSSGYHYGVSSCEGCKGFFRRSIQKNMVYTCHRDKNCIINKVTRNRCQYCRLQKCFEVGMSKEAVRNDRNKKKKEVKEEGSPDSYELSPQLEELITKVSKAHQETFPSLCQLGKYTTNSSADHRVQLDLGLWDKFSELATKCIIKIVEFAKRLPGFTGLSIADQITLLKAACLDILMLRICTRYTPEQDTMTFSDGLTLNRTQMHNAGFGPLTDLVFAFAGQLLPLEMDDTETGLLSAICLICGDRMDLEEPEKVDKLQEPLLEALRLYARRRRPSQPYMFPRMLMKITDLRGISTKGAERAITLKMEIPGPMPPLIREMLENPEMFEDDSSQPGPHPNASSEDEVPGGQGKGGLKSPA
Description: Inverse agonist activity at GAL4 DBD-fused RARgamma LBD (unknown origin) expressed in human HG5LN cells after 18 hrs by luciferase reporter gene assay

physchem = details: buffer, pH 6.5
[2] = molecular target: T2, Nuclear receptor ROR-gamma (Homo sapiens, UniProt P51449)
T2 sequence (P51449 whole entry): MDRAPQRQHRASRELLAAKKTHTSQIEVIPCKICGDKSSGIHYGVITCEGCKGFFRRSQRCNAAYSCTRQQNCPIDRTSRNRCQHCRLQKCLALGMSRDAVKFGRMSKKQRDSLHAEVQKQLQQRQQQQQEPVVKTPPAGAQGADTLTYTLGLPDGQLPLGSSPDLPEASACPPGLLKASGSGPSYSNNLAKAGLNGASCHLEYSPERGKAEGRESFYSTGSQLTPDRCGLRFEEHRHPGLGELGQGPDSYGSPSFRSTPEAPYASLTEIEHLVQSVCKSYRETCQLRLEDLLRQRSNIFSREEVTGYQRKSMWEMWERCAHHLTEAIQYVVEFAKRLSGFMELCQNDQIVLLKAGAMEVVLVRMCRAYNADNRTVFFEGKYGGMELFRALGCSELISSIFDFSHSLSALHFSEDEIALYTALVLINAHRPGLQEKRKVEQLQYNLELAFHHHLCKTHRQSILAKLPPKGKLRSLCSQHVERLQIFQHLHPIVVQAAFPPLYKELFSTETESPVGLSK
Description: Inverse agonist activity at GAL4 DBD-fused RORgammat LBD (unknown origin) expressed in HG5LN cells after 18 hrs by luciferase reporter gene assay

[3] = Photocytotoxicity against human neonatal keratinocytes assessed as decrease in cell viability preincubated for 30 mins followed by 5 J/cm2 UV light irradiation for 15 mins measured after 24 hrs by neutral red dye based assay; assay type: toxicity; details: neonatal keratinocyte
in vitro = details: human, neonatal keratinocytes
Description: Photocytotoxicity against human neonatal keratinocytes assessed as decrease in cell viability by measuring ratio of IC50 in presence of UV to IC50 in absence of UV after 30 mins by neutral red dye based assay

Compound | pIC50 [1] | logD (physchem) | pIC50 [2] | Activity [3] | selectivity ratio at 0.5 h (in vitro)
CNC(=O)c1ccc2c(c1)c(Sc1c(Cl)cccc1Cl)nn2-c1ccc(C(=O)O)cc1 | 5.57 | 1.2 | < 5.00 | – | –
O=C(O)c1ccc(-n2nc(Sc3c(Cl)cccc3Cl)c3cc(C(=O)N4CCCC4)ccc32)cc1 | < 5.00 | 1.9 | 5.59 | – | –
Cc1cccc(C)c1Sc1nn(-c2ccc(C(=O)O)cc2)c2ccc(C(=O)N(C)C)cc12 | < 5.00 | 1.6 | 6.43 | Toxic | –
CS(=O)(=O)c1ccc2c(c1)c(Oc1c(Cl)cccc1Cl)nn2-c1ccc(C(=O)O)cc1 | 5.35 | 1.7 | < 5.00 | – | 87
CN(Cc1ccccc1)C(=O)c1ccc2c(c1)c(Sc1c(Cl)cccc1Cl)nn2-c1ccc(C(=O)O)cc1 | < 5.00 | 2.9 | < 5.00 | – | –
O=C(O)[C@H]1CC[C@H](n2nc(Oc3c(Cl)cccc3Cl)c3ccccc32)CC1 | < 5.00 | 3.1 | < 5.00 | – | 41
O=C(O)c1ccc(-c2nn(C(=O)c3c(Cl)cccc3Cl)c3ccccc23)cc1 | 5.89 | 2.4 | 7.22 | Toxic | –
O=C(O)c1ccc(-n2nc(Oc3c(Cl)cccc3Cl)c3cccnc32)cc1 | 5.42 | 2.3 | 5.92 | – | 190
O=C(O)c1ccc(-n2nc(Cc3c(Cl)cccc3Cl)c3ccccc32)cc1 | 5.17 | 2.8 | 5.74 | – | –
CN(C)C(=O)c1ccc2c(c1)c([S+]([O-])c1c(Cl)cccc1Cl)nn2-c1ccc(C(=O)O)cc1 (stereo unspecified) | < 5.00 | 0.4 | < 5.00 | Toxic | –
CCc1nn(C)c(CC)c1Oc1nn(-c2ccc(C(=O)O)cc2)c2ccccc12 | 5.04 | 1.6 | 5.32 | – | 121
CN(C)C(=O)c1ccc2c(c1)c(Sc1ccccc1)nn2-c1ccc(C(=O)O)cc1 | 5.46 | 1 | < 5.00 | – | –
Cc1cc(C)c(Sc2nn(-c3ccc(C(=O)O)cc3)c3ccc(C(=O)N(C)C)cc23)c(C)c1 | < 5.00 | 2.1 | 5.57 | – | –
CN(C)C(=O)c1ccc2c(c1)c(Nc1c(Cl)cccc1Cl)nn2-c1ccc(C(=O)O)cc1 | < 5.00 | 0.9 | 5.44 | – | –
CN(C)C(=O)c1ccc2c(c1)c(Sc1c(F)cccc1Cl)nn2-c1ccc(C(=O)O)cc1 | < 5.00 | 1.4 | 5.30 | Toxic | –
Cc1ccccc1Sc1nn(-c2ccc(C(=O)O)cc2)c2ccc(C(=O)N(C)C)cc12 | < 5.00 | 1.4 | < 5.00 | – | –
O=C(O)c1cc(F)c(-n2nc(Oc3c(Cl)cccc3Cl)c3ccccc32)c(F)c1 | < 5.00 | 2.9 | 6.51 | – | 16
CN(C)C(=O)c1ccc2c(-c3ccc(C(=O)O)cc3)nn(C(=O)c3c(Cl)cccc3Cl)c2c1 | < 5.00 | 1.3 | 7.27 | – | –
O=C(O)c1ccc(-n2nc(Oc3c(Cl)cccc3Cl)c3ccccc32)nc1 | 5.72 | 2.9 | 5.96 | – | 90
CN(C)C(=O)c1ccc2c(c1)c(Sc1ccc(Cl)cc1Cl)nn2-c1ccc(C(=O)O)cc1 | < 5.00 | 2.2 | < 5.00 | Toxic | –
O=C(O)c1ccc(-n2nc(Oc3c(Cl)cccc3Cl)c3cccc(F)c32)cc1 | 5.12 | 2.8 | 7.06 | – | 30
Cc1cccc2c1c(Oc1c(Cl)cccc1Cl)nn2-c1ccc(C(=O)O)cc1 | 5.96 | 3.6 | 6.09 | – | 19
O=C(O)c1ccc(-n2nc(Sc3c(Cl)cccc3Cl)c3cc(C(=O)N4CCOCC4)ccc32)cc1 | 5.38 | 1.5 | 5.22 | – | –
O=C(O)c1ccc(-n2nc(Oc3c(Cl)cccc3Cl)c3ccccc32)c(F)c1 | < 5.00 | 2.8 | 6.62 | – | 32
O=C(O)c1ccc(-n2nc(Nc3c(Cl)cccc3Cl)c3ccccc32)cc1 | < 5.00 | 1.9 | 5.60 | – | –

Compound | pIC50 [1] | logD (physchem) | pIC50 [2] | Activity [3] | selectivity ratio at 0.5 h (in vitro)
CCS(=O)(=O)c1ccc(CC(=O)Nc2nc(-c3cccc(Cl)c3)c(C(=O)c3ccccc3Cl)s2)cc1 | < 5.00 | 5.2 | 7.10 | – | –
CN(C)C(=O)c1ccc2c(c1)c(Sc1cc(Cl)ccc1Cl)nn2-c1ccc(C(=O)O)cc1 | < 5.00 | 1.9 | 5.37 | – | –
CN(C)C(=O)c1ccc2c(c1)c(Sc1cccc(Cl)c1Cl)nn2-c1ccc(C(=O)O)cc1 | < 5.00 | 2.1 | 5.23 | Toxic | –
O=C(O)c1ccc(-n2nc(Oc3c(Cl)cccc3Cl)c3ccccc32)cc1 | 5.85 | 2.8 | 6.85 | – | > 62
CN1CCN(C(=O)c2ccc3c(c2)c(Sc2c(Cl)cccc2Cl)nn3-c2ccc(C(=O)O)cc2)CC1 | 5.11 | 1 | 5.04 | – | –
O=C(O)c1ccc(-n2nc(Sc3c(Cl)cccc3Cl)c3cc(C(=O)N4CCC4)ccc32)cc1 | 5.39 | 1.7 | 5.92 | – | –
CN(C)C(=O)c1ccc2c(c1)c(S(=O)(=O)c1c(Cl)cccc1Cl)nn2-c1ccc(C(=O)O)cc1 | < 5.00 | 0.9 | < 5.00 | Toxic | –
Cc1cc(C(=O)O)ccc1-n1nc(Oc2c(Cl)cccc2Cl)c2ccccc21 | 5.21 | 3 | 5.44 | – | 41
O=C(O)c1ccc(-n2nc(Oc3c(Cl)cccc3Cl)c3ccccc32)cn1 | < 5.00 | 3.7 | < 5.00 | – | 30
N#Cc1ccc2c(c1)c(Oc1c(Cl)cccc1Cl)nn2-c1ccc(C(=O)O)cc1 | 5.85 | 2.6 | < 5.00 | – | 138
O=C(O)c1ccc(-n2nc(S(=O)(=O)c3c(Cl)cccc3Cl)c3ccccc32)cc1 | 5.08 | 1.8 | 5.32 | – | –
O=C(O)c1ccc(-n2nc(Oc3c(Cl)cccc3Cl)c3c(F)cccc32)cc1 | 6.10 | 2.8 | 6.59 | – | > 90
O=C(O)c1ccc(-n2nc(Oc3c(Cl)cccc3Cl)c3ncccc32)cc1 | 5.17 | 1.3 | 5.68 | – | 11
CN(CCO)C(=O)c1ccc2c(c1)c(Sc1c(Cl)cccc1Cl)nn2-c1ccc(C(=O)O)cc1 | < 5.00 | 0.8 | < 5.00 | – | –
O=C(O)c1ccc(-n2nc([S+]([O-])c3c(Cl)cccc3Cl)c3ccccc32)cc1 (stereo unspecified) | 5.25 | 1.2 | 5.21 | – | –
CN(C)C(=O)c1ccc2c(c1)c(Oc1c(Cl)cccc1Cl)nn2-c1ccc(C(=O)O)cc1 | < 5.00 | 1.5 | 6.52 | – | –
CCN(C)C(=O)c1ccc2c(c1)c(Sc1c(Cl)cccc1Cl)nn2-c1ccc(C(=O)O)cc1 | < 5.00 | 1.9 | 5.19 | – | –
Cc1cccc2c(Oc3c(Cl)cccc3Cl)nn(-c3ccc(C(=O)O)cc3)c12 | < 5.00 | 2.6 | < 5.00 | – | –
CN(C)C(=O)c1ccc2c(Oc3c(Cl)cccc3Cl)nn(-c3ccc(C(=O)O)cc3)c2c1 | < 5.00 | 1.8 | < 5.00 | – | 18
CN(c1c(Cl)cccc1Cl)c1nn(-c2ccc(C(=O)O)cc2)c2ccccc12 | – | 2.6 | < 5.00 | – | –
Cc1ccc([C@@H](NC(=O)Cc2ccc3oc([C@@H](O)c4c(C)noc4C)cc3c2)c2ccccc2)c(C)c1 | < 5.00 | 4.7 | 7.36 | – | –
O=C(O)c1ccc(-n2nc(Sc3c(Cl)cccc3Cl)c3cc(C(=O)N4CC(F)(F)C4)ccc32)cc1 | < 5.00 | 2.3 | 6.14 | – | –
O=C(O)[C@H]1CC[C@@H](n2nc(Oc3c(Cl)cccc3Cl)c3ccccc32)CC1 | < 5.00 | 3.4 | < 5.00 | – | 108
Clc1cccc(Cl)c1Oc1n[nH]c2ccccc12 | 5.24 | 4.9 | < 5.00 | – | 1.6
